Results taken from the NIST ThermoML archive (doi:10.1016/j.tca.2019.02.007).
Numbers after ± are expanded uncertainties.

Tests used:
[1] = for Normal melting temperature: DTA
[2] = Molar enthalpy of transition or fusion; conditions: DSC

| SMILES | Normal melting temperature ([1]; Crystal) | Molar enthalpy of transition or fusion ([2]; Crystal) | Normal melting temperature ([1]; Crystal 1) | Triple point temperature ([1]; Crystal 2, DSC) | Molar enthalpy of transition or fusion ([2]; Crystal 1) | Molar enthalpy of transition or fusion ([2]; Crystal 2) |
| --- | --- | --- | --- | --- | --- | --- |
| CC(=O)Oc1ccccc1C(=O)O [2-acetoxybenzoic acid] | 139.2 ± 1.5 °C | 8.08 ± 0.574 kcal/mol | – | – | – | – |
| O=C(O)c1ccccc1 [benzoic acid] | 122.5 ± 0.5 °C | 4.33 ± 0.131 kcal/mol | – | – | – | – |
| Cn1c(=O)c2c(ncn2C)n(C)c1=O [caffeine] | – | – | 235.2 ± 1.3 °C | 420.3 ± 1.1 K | 5 ± 0.526 kcal/mol | 0.954 ± 0.0741 kcal/mol |
